# Experimental data taken from patent US20250281462A1, “THERAPEUTICALLY EFFECTIVE ORAL ADMINISTRATION OF A 2 ARYLBENZIMIDAZOLE” (Tranquis Therapeutics, Inc., priority 2021, published 2025).
# What was measured:
# [1] = Plasma concentrations after single intravenous dose in mice; type: in vivo; conditions: male, CD-1, mouse, 0.5 mg/kg intravenous, read-out: Terminal elimination half life (converted)
# Method: Three male 7-9 week old male CD-1 mice from Lingchang were treated intravenously with 0.5 mg/kg of TQS-168. TQS-168 was prepared in solution of 31.6% DMAC+36.8% Ethanol+31.6% Propylene glycol. Blood was collected at 0.5, 3, 10, 30, 60, 120, 240, 480 and 720 minutes after a single dose of TQS-168 and then processed. Blood samples were collected via saphenous vein puncture into a K2EDTA tube, centrifuged at 4° C. at 4600 rpm for 5 minutes and plasma collected and stored at less than −20° C. prior to being analyzed by LC-MS for TQS-168 concentrations. Data are presented as concentration and mean concentration of TQS-168 per volume of plasma (ng/mL), as shown in FIG. 10 (individual mice) and FIG. 11 (average), respectively.
# [2] = Plasma concentrations after single intravenous dose in rats; type: in vivo; conditions: male, Sprague Dawley, rat, 0.5 mg/kg intravenous
# Method: A total of 3 male, 7-9 week old, Sprague Dawley rats from Vital River were administered a single intravenous dose of TQS-168 at 0.5 mg/kg, in a volume of 0.5 mL/kg. TQS-168 was prepared in solution of 31.6% DMAC+36.8% ethanol+31.6% propylene glycol.
# Blood samples were collected at 0.5, 3, 10, 30, 60, 120, 240, 480 and 720 minutes after a single dose of TQS-168 and then processed. Blood samples were collected via saphenous vein puncture into a K2EDTA tube, centrifuged at 4° C. at 4600 rpm for 5 minutes, and plasma collected and stored at less than −20° C. prior to being analyzed by LC-MS for TQS-168 concentrations. Data are presented as concentrations of TQS-168 (ng/mL) in plasma and graphed in FIG. 15 (individual rats) and 16 (average).
# [3] = test system: murine models of neurodegenerative diseases; conditions: mice, oral 25-50 mg/kg; Parkinson's disease, Alzheimer's disease, ALS models; cited from earlier work
# Ppargc1α (PGC-1α) = conditions: Zhang et al., Diabetes 62:1297-1307 (2013); cited from earlier work
# [4] = Phase 1 single ascending dose (SAD) trial, plasma pharmacokinetics (Part 1); conditions: human; for Frel AUC(0-inf)/D / Frel AUC(0-last)/D / Frel Cmax/D: dose normalized comparison to Regimen C 540 mg MC; for AUC(0-t) / AUC(0-inf) / Cmax / half-life / Tmax: male, in vivo, po, single dose; for AUC(0-t) / AUC(0-inf) / Cmax / Tmax: human plasma; for half-life: T1/2, human plasma; for Tmax: median
# [5] = 90 mg SDD, fasted (Regimen G) versus fed (Regimen F)
# [6] = 180 mg HME (Regimen E) compared to MC counterpart (Regimen B)
# [7] = 180 mg SDD (Regimen D) compared to MC counterpart (Regimen B)
# [8] = MC formulation, 60 mg to 540 mg TQS-168 (9-fold increase in dose)
# [9] = MC formulation, 180 mg to 540 mg TQS-168 (3-fold increase in dose)
# [10] = SDD fasted, 270 mg (Regimen H) vs 90 mg (Regimen G)
# [11] = SDD fasted, 270 mg (Regimen H) vs 180 mg (Regimen D)
# [12] = Regimen D 180 mg SDD, geometric mean
# [13] = Regimen E 180 mg HME, comparison to Regimen D 180 mg SDD, geometric mean
# [14] = Regimen E 180 mg HME, geometric mean
# [15] = 60 mg, Regimen A: 60 mg TQS-168 MC oral suspension, fasted, geometric mean
# [16] = 60 mg, Regimen A: 60 mg TQS-168 MC oral suspension, fasted
# [17] = 90 mg, Regimen F: 90 mg TQS-168 SDD oral suspension, fed (high fat breakfast), geometric mean
# [18] = 90 mg, Regimen G: 90 mg TQS-168 SDD oral suspension, fasted, geometric mean
# [19] = 90 mg, Regimen G: 90 mg TQS-168 SDD oral suspension, fasted
# [20] = 180 mg, Regimen B: 180 mg TQS-168 MC oral suspension, fasted, geometric mean
# [21] = 180 mg, Regimen D: 180 mg TQS-168 SDD oral suspension, fasted, geometric mean
# [22] = 180 mg, Regimen E: 180 mg TQS-168 HME oral suspension, fasted, geometric mean
# [23] = 180 mg, Regimen B: 180 mg TQS-168 MC oral suspension, fasted
# [24] = 180 mg, Regimen D: 180 mg TQS-168 SDD oral suspension, fasted
# [25] = 180 mg, Regimen E: 180 mg TQS-168 HME oral suspension, fasted
# [26] = 270 mg, Regimen H: 270 mg TQS-168 SDD oral suspension, fasted, geometric mean
# [27] = 270 mg, Regimen H: 270 mg TQS-168 SDD oral suspension, fasted
# [28] = 540 mg, Regimen C: 540 mg TQS-168 MC oral suspension, fasted, geometric mean
# [29] = 540 mg, Regimen C: 540 mg TQS-168 MC oral suspension, fasted
compound,measurement,setting,value
"CC(C)(C)c1ccc(-c2nc3ccccc3[nH]2)cc1 [TQS-168, 2-(4-tert-butylphenyl)-1H-benzimidazole]",half-life,[1],8.4 min
same,half-life,[2],9.72 min
same,clearance,[2]; read-out: clearance rate (converted),9.29 L/h/kg
same,myeloid-mediated inflammation and disease severity,[3],suppress myeloid-mediated inflammation and reduce disease severity
same,effect on Ppargc1α (PGC-1α) gene expression,Ppargc1α (PGC-1α),activator
same,increase in AUC(0-inf),[4]; [5],~14%
same,increase in Cmax,[4]; [5],approximately 136%
same,fold increase in geometric mean AUC(0-inf),[4]; [6],2.06 fold
same,fold increase in geometric mean AUC(0-last),[4]; [6],2.14 fold
same,fold increase in geometric mean Cmax,[4]; [6],2.32 fold
same,fold increase in geometric mean AUC(0-inf),[4]; [7],3.45 fold
same,fold increase in geometric mean AUC(0-last),[4]; [7],3.64 fold
same,fold increase in geometric mean Cmax,[4]; [7],4.11 fold
same,fold increase in AUC(0-24),[4]; [8],20.2 fold
same,fold increase in AUC(0-inf),[4]; [8],21.2 fold
same,fold increase in Cmax,[4]; [8],12.1 fold
same,fold increase in AUC(0-24),[4]; [9],8.8 fold
same,fold increase in AUC(0-inf),[4]; [9],9.5 fold
same,fold increase in Cmax,[4]; [9],6.1 fold
same,fold increase in AUC(0-inf),[4]; [10],4.29 fold
same,fold increase in Cmax,[4]; [10],2.14 fold
same,increase in AUC(0-inf),[4]; [11],~26%
same,increase in Cmax,[4]; [11],approximately 8.7%
same,Frel AUC(0-inf)/D,[4]; [12],118%
same,Frel AUC(0-last)/D,[4]; [12],120%
same,Frel Cmax/D,[4]; [12],218%
same,Frel AUC(0-inf),[4]; [13],59.6%
same,Frel AUC(0-last),[4]; [13],58.9%
same,Frel Cmax,[4]; [13],56.6%
same,Frel AUC(0-inf)/D,[4]; [14],70.4%
same,Frel AUC(0-last)/D,[4]; [14],70.9%
same,Frel Cmax/D,[4]; [14],124%
same,AUC(0-t),"[4]; 60 mg, AUC(0-24), Regimen A: 60 mg TQS-168 MC oral suspension, fasted, geometric mean",0.0712 µg·h/mL
same,AUC(0-inf),[4]; [15],0.0727 µg·h/mL
same,AUC(0-t),"[4]; 60 mg, AUC(0-last), Regimen A: 60 mg TQS-168 MC oral suspension, fasted, geometric mean",0.0676 µg·h/mL
same,Cmax,[4]; [16],0.11 µM
same,Cmax,[4]; [15],0.0267 µg/mL
same,half-life,[4]; [15],3.06 h
same,Tmax,[4]; [16],1 h
same,AUC(0-t),"[4]; 90 mg, AUC(0-24), Regimen F: 90 mg TQS-168 SDD oral suspension, fed (high fat breakfast), geometric mean",0.168 µg·h/mL
same,AUC(0-t),"[4]; 90 mg, AUC(0-24), Regimen G: 90 mg TQS-168 SDD oral suspension, fasted, geometric mean",0.192 µg·h/mL
same,AUC(0-inf),[4]; [17],0.171 µg·h/mL
same,AUC(0-inf),[4]; [18],0.195 µg·h/mL
same,AUC(0-t),"[4]; 90 mg, AUC(0-last), Regimen F: 90 mg TQS-168 SDD oral suspension, fed (high fat breakfast), geometric mean",0.166 µg·h/mL
same,AUC(0-t),"[4]; 90 mg, AUC(0-last), Regimen G: 90 mg TQS-168 SDD oral suspension, fasted, geometric mean",0.189 µg·h/mL
same,Cmax,[4]; [17],0.0471 µg/mL
same,Cmax,"[4]; 90 mg, Regimen F: 90 mg TQS-168 SDD oral suspension, fed",0.19 µM
same,Cmax,[4]; [19],0.44 µM
same,Cmax,[4]; [18],0.111 µg/mL
same,half-life,[4]; [17],3.52 h
same,half-life,[4]; [18],4.85 h
same,Tmax,"[4]; 90 mg, Regimen F: 90 mg TQS-168 SDD oral suspension, fed (high fat breakfast)",1.5 h
same,Tmax,[4]; [19],0.5 h
same,AUC(0-t),"[4]; 180 mg, AUC(0-24), Regimen B: 180 mg TQS-168 MC oral suspension, fasted, geometric mean",0.163 µg·h/mL
same,AUC(0-t),"[4]; 180 mg, AUC(0-24), Regimen D: 180 mg TQS-168 SDD oral suspension, fasted, geometric mean",0.608 µg·h/mL
same,AUC(0-t),"[4]; 180 mg, AUC(0-24), Regimen E: 180 mg TQS-168 HME oral suspension, fasted, geometric mean",0.358 µg·h/mL
same,AUC(0-inf),[4]; [20],0.18 µg·h/mL
same,AUC(0-inf),[4]; [21],0.621 µg·h/mL
same,AUC(0-inf),[4]; [22],0.37 µg·h/mL
same,AUC(0-t),"[4]; 180 mg, AUC(0-last), Regimen B: 180 mg TQS-168 MC oral suspension, fasted, geometric mean",0.168 µg·h/mL
same,AUC(0-t),"[4]; 180 mg, AUC(0-last), Regimen D: 180 mg TQS-168 SDD oral suspension, fasted, geometric mean",0.611 µg·h/mL
same,AUC(0-t),"[4]; 180 mg, AUC(0-last), Regimen E: 180 mg TQS-168 HME oral suspension, fasted, geometric mean",0.36 µg·h/mL
same,Cmax,[4]; [23],0.21 µM
same,Cmax,[4]; [20],0.0531 µg/mL
same,Cmax,[4]; [24],0.87 µM
same,Cmax,[4]; [21],0.218 µg/mL
same,Cmax,[4]; [25],0.49 µM
same,Cmax,[4]; [22],0.123 µg/mL
same,half-life,[4]; [20],7.36 h
same,half-life,[4]; [21],5.64 h
same,half-life,[4]; [22],7.25 h
same,Tmax,[4]; [23],1 h
same,Tmax,[4]; [24],1 h
same,Tmax,[4]; [25],1.5 h
same,AUC(0-t),"[4]; 270 mg, AUC(0-24), Regimen H: 270 mg TQS-168 SDD oral suspension, fasted, geometric mean",0.736 µg·h/mL
same,AUC(0-inf),[4]; [26],0.836 µg·h/mL
same,AUC(0-t),"[4]; 270 mg, AUC(0-last), Regimen H: 270 mg TQS-168 SDD oral suspension, fasted, geometric mean",0.801 µg·h/mL
same,Cmax,[4]; [27],0.95 µM
same,Cmax,[4]; [26],0.237 µg/mL
same,half-life,[4]; [26],10.4 h
same,Tmax,[4]; [27],1.5 h
same,AUC(0-t),"[4]; 540 mg, AUC(0-24), Regimen C: 540 mg TQS-168 MC oral suspension, fasted, geometric mean",1.44 µg·h/mL
same,AUC(0-inf),[4]; [28],1.6 µg·h/mL
same,AUC(0-t),"[4]; 540 mg, AUC(0-last), Regimen C: 540 mg TQS-168 MC oral suspension, fasted, geometric mean",1.54 µg·h/mL
same,Cmax,[4]; [29],1.29 µM
same,Cmax,[4]; [28],0.323 µg/mL
same,half-life,[4]; [28],10.1 h
same,Tmax,[4]; [29],2.25 h
